A word on the Kd: it is the concentration at which binding is half-saturated. A low value points to higher affinity.

The target of one assay is T1, PPARγ LBD WT (Homo sapiens, UniProt P37231).
T1 construct: PPARγ LBD (residues 195–477 in PPARγ1 numbering) was cloned into the expression vector pET-28b(+); made in house; host or cells: Escherichia coli Rosetta 2(DE3)
T1 sequence (P37231 195-477 isoform P37231-2): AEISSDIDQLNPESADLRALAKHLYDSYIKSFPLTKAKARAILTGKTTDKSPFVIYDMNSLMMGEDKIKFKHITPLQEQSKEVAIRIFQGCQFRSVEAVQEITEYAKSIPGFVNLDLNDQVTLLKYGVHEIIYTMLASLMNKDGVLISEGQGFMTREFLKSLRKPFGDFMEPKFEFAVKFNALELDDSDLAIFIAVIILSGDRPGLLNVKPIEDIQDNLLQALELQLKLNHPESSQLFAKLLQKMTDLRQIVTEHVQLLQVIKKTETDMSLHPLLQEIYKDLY
The assay can be described thus: ITC binding of endogenous ligands to PPARγ LBD WT. Conditions: PBS pH 7.2, 25 °C, ligand 0.9 mM. As for the experimental part: (§1) Since PPARγ is physiologically regulated by endogenous ligands, it is possible that the activation of PPARγ mutants would be induced upon binding to known endogenous PPARγ ligands. […] […]. […] […].
(§2) All the measurements were conducted in the buffer of PBS pH 7.2 at 25 °C. The ligands filled in the syringe were titrated into the proteins in the cell using 19 injections of 2 μL and an initial injection of 0.4 μL with 150 s equilibration between injections. The final protein concentrations of PPARγ LBD WT and mutants were 60 μM for 15d-PGJ2 at the ligand concentration of 900 μM and 45 μM for 13S-HODE at the ligand concentration of 900 μM, respectively. The obtained data were analyzed using Origin 7.0 software.

The next assay concerns the target T2, PPARγ LBD R280C (Homo sapiens, UniProt P37231, R308C).
T2 construct: PPARγ LBD (residues 195–477 in PPARγ1 numbering) was cloned into the expression vector pET-28b(+); made in house; host or cells: Escherichia coli Rosetta 2(DE3)
T2 sequence (P37231 195-477 isoform P37231-2 R280C): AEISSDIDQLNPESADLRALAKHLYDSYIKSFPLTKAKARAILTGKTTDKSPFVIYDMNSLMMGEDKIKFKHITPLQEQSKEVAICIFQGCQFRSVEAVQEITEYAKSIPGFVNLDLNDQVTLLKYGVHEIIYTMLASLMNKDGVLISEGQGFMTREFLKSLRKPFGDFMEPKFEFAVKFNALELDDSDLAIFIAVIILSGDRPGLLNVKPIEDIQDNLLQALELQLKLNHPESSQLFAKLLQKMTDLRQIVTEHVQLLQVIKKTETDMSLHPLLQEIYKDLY
The assay can be described thus: ITC binding of endogenous ligands to PPARγ LBD R280C. Conditions: PBS pH 7.2, 25 °C, ligand 0.9 mM. How it is done:
as §1, §2

In the next assay the target is T3, PPARγ LBD C285Y (Homo sapiens, UniProt P37231, C313Y).
T3 construct: PPARγ LBD (residues 195–477 in PPARγ1 numbering) was cloned into the expression vector pET-28b(+); made in house; host or cells: Escherichia coli Rosetta 2(DE3)
T3 sequence (P37231 195-477 isoform P37231-2 C285Y): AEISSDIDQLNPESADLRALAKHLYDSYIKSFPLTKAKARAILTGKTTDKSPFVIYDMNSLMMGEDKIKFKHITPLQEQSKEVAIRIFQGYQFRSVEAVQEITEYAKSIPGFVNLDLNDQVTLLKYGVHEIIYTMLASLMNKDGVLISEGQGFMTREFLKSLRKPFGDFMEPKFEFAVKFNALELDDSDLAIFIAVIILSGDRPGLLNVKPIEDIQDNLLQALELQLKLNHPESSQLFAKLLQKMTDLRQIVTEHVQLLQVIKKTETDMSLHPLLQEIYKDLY
As to the kind of experiment: ITC binding of endogenous ligands to PPARγ LBD C285Y. Particulars: PBS pH 7.2, 25 °C, ligand 0.9 mM. As for the experimental part: as §1, §2

For another assay, the target named is T4, PPARγ LBD Q286E (Homo sapiens, UniProt P37231, Q314E).
T4 construct: PPARγ LBD (residues 195–477 in PPARγ1 numbering) was cloned into the expression vector pET-28b(+); made in house; host or cells: Escherichia coli Rosetta 2(DE3)
T4 sequence (P37231 195-477 isoform P37231-2 Q286E): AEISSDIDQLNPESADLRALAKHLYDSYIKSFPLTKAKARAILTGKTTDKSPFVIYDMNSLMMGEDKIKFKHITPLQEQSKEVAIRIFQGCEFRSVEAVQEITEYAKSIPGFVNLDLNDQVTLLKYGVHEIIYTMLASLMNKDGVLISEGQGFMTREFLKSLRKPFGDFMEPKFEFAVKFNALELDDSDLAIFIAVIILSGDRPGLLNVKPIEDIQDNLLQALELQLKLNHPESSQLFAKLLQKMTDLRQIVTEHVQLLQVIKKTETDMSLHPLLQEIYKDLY
As to the kind of experiment: ITC binding of endogenous ligands to PPARγ LBD Q286E. Particulars: PBS pH 7.2, 25 °C, ligand 0.9 mM. As for the experimental part: as §1, §2

Another assay concerns the target T5, PPARγ LBD Q286P (Homo sapiens, UniProt P37231, Q314P).
T5 construct: PPARγ LBD (residues 195–477 in PPARγ1 numbering) was cloned into the expression vector pET-28b(+); made in house; host or cells: Escherichia coli Rosetta 2(DE3)
T5 sequence (P37231 195-477 isoform P37231-2 Q286P): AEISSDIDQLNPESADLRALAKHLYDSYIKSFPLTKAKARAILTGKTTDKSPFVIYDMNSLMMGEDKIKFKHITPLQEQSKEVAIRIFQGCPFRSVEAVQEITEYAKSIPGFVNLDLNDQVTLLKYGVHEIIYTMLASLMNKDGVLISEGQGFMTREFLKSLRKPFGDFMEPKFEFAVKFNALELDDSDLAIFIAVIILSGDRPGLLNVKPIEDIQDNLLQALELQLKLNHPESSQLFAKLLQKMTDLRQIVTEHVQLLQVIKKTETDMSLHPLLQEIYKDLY
As to the kind of experiment: ITC binding of endogenous ligands to PPARγ LBD Q286P. Conditions: PBS pH 7.2, 25 °C, ligand 0.9 mM. As for the experimental part: as §1, §2

Another assay has as its target T6, PPARγ LBD F287Y (Homo sapiens, UniProt P37231, F315Y).
T6 construct: PPARγ LBD (residues 195–477 in PPARγ1 numbering) was cloned into the expression vector pET-28b(+); made in house; host or cells: Escherichia coli Rosetta 2(DE3)
T6 sequence (P37231 195-477 isoform P37231-2 F287Y): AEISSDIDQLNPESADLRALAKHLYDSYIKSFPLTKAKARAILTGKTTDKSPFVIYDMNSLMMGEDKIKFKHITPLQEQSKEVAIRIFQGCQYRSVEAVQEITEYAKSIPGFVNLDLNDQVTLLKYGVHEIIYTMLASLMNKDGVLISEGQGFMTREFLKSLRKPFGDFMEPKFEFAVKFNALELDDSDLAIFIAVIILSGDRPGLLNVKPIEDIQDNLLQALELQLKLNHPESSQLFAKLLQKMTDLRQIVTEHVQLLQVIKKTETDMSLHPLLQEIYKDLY
The assay can be described thus: ITC binding of endogenous ligands to PPARγ LBD F287Y. Conditions: PBS pH 7.2, 25 °C, ligand 0.9 mM. How it is done:
as §1, §2

The next assay concerns the target T7, PPARγ LBD R288C (Homo sapiens, UniProt P37231, R316C).
T7 construct: PPARγ LBD (residues 195–477 in PPARγ1 numbering) was cloned into the expression vector pET-28b(+); made in house; host or cells: Escherichia coli Rosetta 2(DE3)
T7 sequence (P37231 195-477 isoform P37231-2 R288C): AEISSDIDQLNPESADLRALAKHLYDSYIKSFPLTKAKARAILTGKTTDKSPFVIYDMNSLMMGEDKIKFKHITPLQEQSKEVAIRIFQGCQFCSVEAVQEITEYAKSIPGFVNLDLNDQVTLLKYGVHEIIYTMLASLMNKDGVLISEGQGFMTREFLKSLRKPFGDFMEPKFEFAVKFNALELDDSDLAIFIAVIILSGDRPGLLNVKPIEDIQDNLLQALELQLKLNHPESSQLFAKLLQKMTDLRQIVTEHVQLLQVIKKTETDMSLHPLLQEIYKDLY
The assay can be described thus: ITC binding of endogenous ligands to PPARγ LBD R288C. Conditions: PBS pH 7.2, 25 °C, ligand 0.9 mM. How it is done:
as §1, §2

In the next assay the target is T8, PPARγ LBD R288H (Homo sapiens, UniProt P37231, R316H).
T8 construct: PPARγ LBD (residues 195–477 in PPARγ1 numbering) was cloned into the expression vector pET-28b(+); made in house; host or cells: Escherichia coli Rosetta 2(DE3)
T8 sequence (P37231 195-477 isoform P37231-2 R288H): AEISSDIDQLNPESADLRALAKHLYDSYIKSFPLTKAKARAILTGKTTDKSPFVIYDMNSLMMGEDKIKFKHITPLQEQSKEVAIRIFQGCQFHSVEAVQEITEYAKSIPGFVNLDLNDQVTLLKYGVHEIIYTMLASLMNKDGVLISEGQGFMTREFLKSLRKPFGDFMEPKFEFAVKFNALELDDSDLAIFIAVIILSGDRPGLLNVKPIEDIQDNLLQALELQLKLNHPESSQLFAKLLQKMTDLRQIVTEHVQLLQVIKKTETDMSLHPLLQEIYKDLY
As to the kind of experiment: ITC binding of endogenous ligands to PPARγ LBD R288H. Conditions: PBS pH 7.2, 25 °C, ligand 0.9 mM. As for the experimental part:
as §1, §2

Another assay has as its target T9, PPARγ LBD S289C (Homo sapiens, UniProt P37231, S317C).
T9 construct: PPARγ LBD (residues 195–477 in PPARγ1 numbering) was cloned into the expression vector pET-28b(+); made in house; host or cells: Escherichia coli Rosetta 2(DE3)
T9 sequence (P37231 195-477 isoform P37231-2 S289C): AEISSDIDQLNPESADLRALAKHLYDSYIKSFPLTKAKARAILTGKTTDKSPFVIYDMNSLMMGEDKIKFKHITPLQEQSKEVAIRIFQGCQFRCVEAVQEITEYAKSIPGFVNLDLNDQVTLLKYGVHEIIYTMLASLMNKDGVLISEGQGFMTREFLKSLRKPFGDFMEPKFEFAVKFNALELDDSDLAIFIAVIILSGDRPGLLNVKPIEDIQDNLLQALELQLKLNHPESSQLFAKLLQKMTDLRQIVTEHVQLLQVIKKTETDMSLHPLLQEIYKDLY
As to the kind of experiment: ITC binding of endogenous ligands to PPARγ LBD S289C. Particulars: PBS pH 7.2, 25 °C, ligand 0.9 mM. As for the experimental part: as §1, §2

Assay [1] addresses MED1 co-activator peptide containing the LXXLL motif. As to the kind of experiment: SPR; MED1 peptide amine-coupled to a CM5 chip (about 60 RU); PPARγ LBD WT or mutant injected at 78 nM to 10 μM, 30 μL/min, 120 s, dissociation 400 s; Biacore T200, 25 °C; 50 mM Tris-HCl pH 7.5, 150 mM NaCl, 1 mM TCEP, 0.005% tween 20; 1:1 Langmuir model.

As for `CCCCC[C@H](O)/C=C/C=C\CCCCCCCC(=O)O` [13S-HODE, 13S-hydroxy-9Z,11E-octadecadienoic acid], the Kd on PPARγ LBD WT is 14.6 µM; at PPARγ LBD R280C it was over 201 µM; on PPARγ LBD C285Y, 42.7 µM; on PPARγ LBD Q286E it was 45.9 µM; at PPARγ LBD Q286P, over 201 µM; on PPARγ LBD F287Y, 27.7 µM. The Kd is over 201 µM on PPARγ LBD R288C, 67.1 µM on PPARγ LBD R288H and over 201 µM on PPARγ LBD S289C.
As for `CCCCCC=CC=C1C(=O)C=C[C@@H]1CC=CCCCC(=O)O` [15d-PGJ2, 15-deoxy-∆^12,14-prostaglandin J2], the Kd was 51 µM on PPARγ LBD WT; over 201 µM on PPARγ LBD R280C; 162 µM on PPARγ LBD C285Y; 201 µM at PPARγ LBD Q286P; 65.3 µM on PPARγ LBD F287Y; over 201 µM on PPARγ LBD R288H. For the same compound, the Kd at PPARγ LBD S289C came to 42.9 µM.
For the compound “PPARγ LBD Q286E (from UniProt P37231-2 195-477) (domain or fragment)”, the dissociation constant (Kd) in assay [1] was 5.61 µM.

For the origin of these results see publication PMC7761077, “Differential Effects of Cancer-Associated Mutations Enriched in Helix H3 of PPARγ” (Cancers, 2020).
